Laboratory results reported in patent publication US7291641B2, “Derivatives of heterocycles with 5 members, their preparation and their use as medicaments” (Societe de Conseils de Recherches et d'Applications …, priority 1999, dated 2007).

For `CCCCCCC(NCc1ccccc1)c1nc(-c2ccccc2OC)c[nH]1` (racemic) [Example 201, (R,S)-N-benzyl-1-[4-(2-methoxyphenyl)-1H-imidazol-2-yl]-1-heptanamine], the melting point was 155 to 157 °C. In the case of `CCCCCC(NCc1ccccc1)c1nc(-c2ccccc2)c[nH]1` (racemic) [Example 202, (R,S)-N-benzyl-1-(4-phenyl-1H-imidazol-2-yl)-1-hexanamine], the melting point is reported as 192 to 194 °C. Work on `CCCCCCC(NCc1ccccc1)c1nc(-c2cccc(OC)c2)c[nH]1` (racemic) [Example 216, (R,S)-N-benzyl-1-[4-(3-methoxyphenyl)-1H-imidazol-2-yl]-1-heptanamine] yielded a melting point of 141 to 142 °C. `CCCCCCC(NCc1ccccc1)c1nc(-c2ccc(C#N)cc2)c[nH]1` (racemic) [Example 217, (R,S)-4-{2-[1-(benzylamino)heptyl]-1H-imidazol-4-yl}benzonitrile] gave a melting point of 188 to 189 °C. Work on `CCCCCCC(NCCC)c1nc(-c2ccccc2)c[nH]1` (racemic) [Example 224, (R,S)-N-[1-(4-phenyl-1H-imidazol-2-yl)heptyl]-N-propylamine] yielded a melting point of 94 to 98 °C. `CCCCCCC(NCc1ccc(OC)cc1)c1nc(-c2ccccc2)c[nH]1` (racemic) [Example 227, (R,S)-N-(4-methoxybenzyl)-1-(4-phenyl-1H-imidazol-2-yl)-1-heptanamine] showed a melting point of 126 to 128 °C. Compound `CC(C)CCCC(NCc1ccccc1)c1nc(-c2cccc(Br)c2)c[nH]1` (racemic) [Example 235, (R,S)-N-benzyl-1-[4-(3-bromophenyl)-1H-imidazol-2-yl]-5-methyl-1-hexanamine] has a melting point of 92 to 94 °C. `CCCCCCC(NC1CCC1)c1nc(-c2ccccc2)c[nH]1` (racemic) [Example 240, (R,S)-N-[1-(4-phenyl-1H-imidazol-2-yl)heptyl]cyclobutanamine] showed a melting point of 148 to 150 °C. `CCCCCCC(NC(C)C)c1nc(-c2ccccc2)c[nH]1` (racemic) [Example 248, (R,S)-N-isopropyl-N-[1-(4-phenyl-1H-imidazol-2-yl)heptyl]amine] showed a melting point of 114 to 116 °C. Compound `Fc1ccc(-c2c[nH]c(C(NC3CCC3)C3CCCC3)n2)cc1` (racemic) [Example 274, (R,S)-N-{cyclopentyl[4-(4-fluorophenyl)-1H-imidazol-2-yl]methyl}cyclobutanamine] has a melting point of 146 to 148 °C. Compound `C#CCN(C)Cc1nc(-c2cc(C(C)(C)C)c(O)c(C(C)(C)C)c2)cs1` [Example 2, 2,6-di(tert-butyl)-4-(2-{[methyl(2-propynyl)amino]methyl}-1,3-thiazol-4-yl)phenol] has a melting point of 210 to 215 °C. Work on `CN(CC#N)Cc1nc(-c2cc(C(C)(C)C)c(O)c(C(C)(C)C)c2)cs1` [Example 3, 2-[({4-[3,5-di(tert-butyl)-4-hydroxyphenyl]-1,3-thiazol-2-yl}methyl)(methyl)amino]acetonitrile] yielded a melting point of 150 to 156 °C. Compound `CN(Cc1ccccc1)Cc1nc(-c2cc(C(C)(C)C)c(O)c(C(C)(C)C)c2)cs1` [Example 7, 4-(2-{[benzyl(methyl)amino]methyl}-1,3-thiazol-4-yl)-2,6-di(tert-butyl)phenol] has a melting point of 165 to 170 °C. In the case of `CCCCOC(=O)NCCc1nc(-c2ccc(-c3ccccc3)cc2)c[nH]1` [Example 31, butyl 2-(4-[1,1′-biphenyl]-4-yl-1H-imidazol-2-yl)ethylcarbamate], the melting point is reported as 136.7 °C. Compound `CCCCC(=O)NCCc1nc(-c2ccc(-c3ccccc3)cc2)c[nH]1` [Example 32, N-[2-(4-[1,1′-biphenyl]-4-yl-1H-imidazol-2-yl)ethyl]pentanamide] has a melting point of 166 to 167 °C. With `CCCCS(=O)(=O)NCCc1nc(-c2ccc(-c3ccccc3)cc2)c[nH]1` [Example 33, N-[2-(4-[1,1′-biphenyl]-4-yl-1H-imidazol-2-yl)ethyl]-1-butanesulphonamide] the melting point was 168.5 °C. Compound `CCCCNC(=O)NCCc1nc(-c2ccc(-c3ccccc3)cc2)c[nH]1` [Example 34] has a melting point of 178 °C. For `Fc1ccc(-c2c[nH]c([C@@H](NC3CCC3)C3CCCCC3)n2)cc1` [Example 35, N-{(S)-cyclohexyl[4-(4-fluorophenyl)-1H-imidazol-2-yl]methyl}cyclobutanamine], the melting point was 170 to 172 °C. Work on `CCCCCCC(NC1CCCCC1)c1nc(C2CCCCC2)c[nH]1` (stereo not drawn) [Example 36, N-[1-(4-cyclohexyl-1H-imidazol-2-yl)heptyl]cyclohexanamine] yielded a melting point of 172 to 174 °C. With `CC(C)CCCC(NC1CCCCC1)c1nc(-c2cccc(Br)c2)c[nH]1` (stereo not drawn) [Example 37, N-{1-[4-(3-bromophenyl)-1H-imidazol-2-yl]-5-methylhexyl}-N-cyclohexylamine] the melting point was 236 to 238 °C. With `CCCCCCC(NC1CCCCC1)c1nc(-c2ccc(F)cc2)c[nH]1` (stereo not drawn) [Example 38, N-{1-[4-(4-fluorophenyl)-1H-imidazol-2-yl]heptyl}cyclohexanamine] the melting point was 190 to 192 °C. `CC(C)(C)c1cn(Cc2ccccc2)c([C@@H](Cc2c[nH]c3ccccc23)NCc2ccccc2)n1` [Example 39, (1R)-N-benzyl-1-(1-benzyl-4-tert-butyl-1H-imidazol-2-yl)-2-(1H-indol-3-yl)ethanamine] showed a melting point of 60 to 62 °C. `CCCCCCN(Cc1ccccc1)Cc1nc(-c2ccc(-c3ccccc3)cc2)c[nH]1` [Example 41, N-benzyl-N-[(4-[1,1′-biphenyl]-4-yl-1H-imidazol-2-yl)methyl]-1-hexanamine] showed a melting point of 120 to 122 °C. For `CN(Cc1ccccc1)Cc1nc(-c2ccc(-c3ccccc3)cc2)c[nH]1` [Example 42, N-benzyl(4-[1,1′-biphenyl]-4-yl-1H-imidazol-2-yl)-N-methylmethanamine], the melting point was 106 to 108 °C. `c1ccc(-c2c[nH]c([C@@H](Cc3c[nH]c4ccccc34)Nc3ncccn3)n2)cc1` [Example 44, N-[(1R)-2-(1H-indol-3-yl)-1-(4-phenyl-1H-imidazol-2-yl)ethyl]-2-pyrimidinamine] gave a melting point of 138 to 140 °C. In the case of `CN(C)Cc1nc(-c2ccccc2)cn1Cc1ccccc1` [Example 45, (1-benzyl-4-phenyl-1H-imidazol-2-yl)-N,N-dimethylmethanamine], the melting point is reported as 78 to 80 °C. `CN(Cc1ccccc1)[C@H](Cc1c[nH]c2ccccc12)c1nc(-c2ccccc2)c[nH]1` [Example 46, (1R)-N-benzyl-2-(1H-indol-3-yl)-N-methyl-1-(4-phenyl-1H-imidazol-2-yl)ethanamine] showed a melting point of 110 to 112 °C. With `c1ccc(CN[C@H](Cc2ccccc2)c2nc(-c3ccccc3)c[nH]2)cc1` [Example 48, (1R)-N-benzyl-2-phenyl-1-(4-phenyl-1H-imidazol-2-yl)ethanamine] the melting point was 228 to 230 °C. Compound `CC(C)(C)OC(=O)N[C@H](Cc1c[nH]c2ccccc12)c1nc(C(C)(C)C)c[nH]1` [Example 50, tert-butyl (1R)-1-(4-tert-butyl-1H-imidazol-2-yl)-2-(1H-indol-3-yl)-ethylcarbamate] has a melting point of 104 to 106 °C. Work on `CC(C)(C)CC(=O)NCCc1nc(-c2ccc(-c3ccccc3)cc2)c[nH]1` [Example 61, N-[2-(4-[1,1′-biphenyl]-4-yl-1H-imidazol-2-yl)ethyl]-3,3-dimethyl-butanamide] yielded a melting point of 186 to 188 °C. Compound `CCCCOC(=O)NCc1nc(-c2ccc(-c3ccccc3)cc2)c[nH]1` [Example 78, butyl (4-[1,1′-biphenyl]-4-yl-1H-imidazol-2-yl)methylcarbamate] has a melting point of 130 to 132 °C. `Fc1cccc(-c2c[nH]c([C@@H](NC3CCC3)C3CCCCC3)n2)c1` [Example 87, N-{(S)-cyclohexyl[4-(3-fluorophenyl)-1H-imidazol-2-yl]methyl}-cyclobutanamine] gave a melting point of 172 to 176 °C. `c1ccc(CN[C@H](Cc2c[nH]c3ccccc23)c2nc(-c3ccccc3)c[nH]2)cc1` [Example 88, (1R)-N-benzyl-2-(1H-indol-3-yl)-1-(4-phenyl-1H-imidazol-2-yl)ethanamine] gave a melting point of 100 to 102 °C. In the case of `c1ccc(CN[C@@H](Cc2c[nH]c3ccccc23)c2nc(-c3ccccc3)c[nH]2)cc1` [Example 93, (1S)-N-benzyl-2-(1H-indol-3-yl)-1-(4-phenyl-1H-imidazol-2-yl)ethanamine], the melting point is reported as 118 to 120 °C. With `c1ccc(CN[C@H](Cc2c[nH]c3ccccc23)c2nc(-c3ccccc3)c(-c3ccccc3)[nH]2)cc1` [Example 94, (1R)-N-benzyl-1-(4,5-diphenyl-1H-imidazol-2-yl)-2-(1H-indol-3-yl)ethanamine] the melting point was 146 to 148 °C. Compound `Cc1[nH]c([C@@H](Cc2c[nH]c3ccccc23)NCc2ccccc2)nc1-c1ccccc1` [Example 95, (1R)-N-benzyl-2-(1H-indol-3-yl)-1-(5-methyl-4-phenyl-1H-imidazol-2-yl)ethanamine] has a melting point of 120 to 122 °C. For `CC(C)(C)OC(=O)N[C@H](Cc1c[nH]c2ccccc12)c1nc(-c2ccccc2)c[nH]1` [Example 96, tert-butyl (1R)-2-(1H-indol-3-yl)-1-(4-phenyl-1H-imidazol-2-yl)-ethylcarbamate], the melting point was 208 to 210 °C. `O=C(N[C@H](Cc1c[nH]c2ccccc12)c1nc(-c2ccccc2)c[nH]1)c1ccccc1` [Example 98, N-[(1R)-2-(1H-indol-3-yl)-1-(4-phenyl-1H-imidazol-2-yl)ethyl]benzamide] showed a melting point of 218 to 220 °C. Compound `O=C(N[C@H](Cc1c[nH]c2ccccc12)c1nc(-c2ccccc2)c[nH]1)OCc1ccccc1` [Example 99, benzyl (1R)-2-(1H-indol-3-yl)-1-(4-phenyl-1H-imidazol-2-yl)ethylcarbamate] has a melting point of 105 to 108 °C. With `c1ccc(CN[C@H](Cc2c[nH]c3ccccc23)c2nc(-c3ccccc3)cs2)cc1` [Example 100, (1R)-N-benzyl-2-(1H-indol-3-yl)-1-(4-phenyl-1,3-thiazol-2-yl)ethanamine] the melting point was 134 to 136 °C. In the case of `O=C(N[C@H](Cc1c[nH]c2ccccc12)c1nc(-c2ccccc2)cs1)c1ccccc1` [Example 101, N-[(1R)-2-(1H-indol-3-yl)-1-(4-phenyl-1,3-thiazol-2-yl)-ethyl]benzamide], the melting point is reported as 108 to 110 °C. With `CC(C)(C)OC(=O)N[C@H](Cc1c[nH]c2ccccc12)c1nc(-c2ccc([N+](=O)[O-])cc2)c[nH]1` [Example 102, tert-butyl (1R)-2-(1H-indol-3-yl)-1-[4-(4-nitrophenyl)-1H-imidazol-2-yl]-ethylcarbamate] the melting point was 220 to 222 °C.
